Experimental findings from paper PMC9787790, “Functional Characterization of Novel Bony Fish Lipoxygenase Isoforms and Their Possible Involvement in Inflammation” (International Journal of Molecular Sciences, 2022) are described below.

Assay [1] addresses T1, ALOX-isoform of P. nyererei (putative ALOX15 ortholog) (Pundamilia nyererei, UniProt A0A3B4GKQ4).
T1 construct: gene alox12; cell lysate supernatant used (activity lost on purification)
T1 sequence (A0A3B4GKQ4 1-670): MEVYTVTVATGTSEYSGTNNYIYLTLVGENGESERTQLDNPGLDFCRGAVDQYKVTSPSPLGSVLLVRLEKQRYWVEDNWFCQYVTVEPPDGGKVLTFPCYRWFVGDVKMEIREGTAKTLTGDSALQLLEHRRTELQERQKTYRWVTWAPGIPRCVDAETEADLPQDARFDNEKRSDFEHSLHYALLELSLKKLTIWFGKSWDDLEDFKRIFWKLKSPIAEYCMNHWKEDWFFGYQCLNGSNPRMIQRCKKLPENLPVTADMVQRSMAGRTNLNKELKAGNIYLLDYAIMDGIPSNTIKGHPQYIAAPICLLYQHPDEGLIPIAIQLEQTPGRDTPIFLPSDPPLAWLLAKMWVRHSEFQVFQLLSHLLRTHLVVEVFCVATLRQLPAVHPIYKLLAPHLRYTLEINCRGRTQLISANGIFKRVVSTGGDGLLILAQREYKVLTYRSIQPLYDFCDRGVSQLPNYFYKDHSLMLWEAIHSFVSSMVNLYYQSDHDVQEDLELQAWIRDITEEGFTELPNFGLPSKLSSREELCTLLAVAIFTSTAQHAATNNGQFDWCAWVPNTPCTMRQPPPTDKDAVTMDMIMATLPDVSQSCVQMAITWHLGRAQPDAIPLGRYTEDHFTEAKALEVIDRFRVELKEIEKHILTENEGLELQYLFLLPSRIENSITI
In words: lysate supernatant oxygenation assay, RP-HPLC / NP-HPLC of products. The class given is biochemical. Particulars: 100 µM AA; 3 min; products after reduction 12-HETE (major) and 8-HETE.

Assay [2] deals with T2, ALOX-isoform of N. furzeri (putative ALOX15 ortholog) (Nothobranchius furzeri, UniProt A0A1A7ZHE9).
T2 construct: gene ALOX12; cell lysate supernatant used (activity lost on purification)
T2 sequence (A0A1A7ZHE9 1-670): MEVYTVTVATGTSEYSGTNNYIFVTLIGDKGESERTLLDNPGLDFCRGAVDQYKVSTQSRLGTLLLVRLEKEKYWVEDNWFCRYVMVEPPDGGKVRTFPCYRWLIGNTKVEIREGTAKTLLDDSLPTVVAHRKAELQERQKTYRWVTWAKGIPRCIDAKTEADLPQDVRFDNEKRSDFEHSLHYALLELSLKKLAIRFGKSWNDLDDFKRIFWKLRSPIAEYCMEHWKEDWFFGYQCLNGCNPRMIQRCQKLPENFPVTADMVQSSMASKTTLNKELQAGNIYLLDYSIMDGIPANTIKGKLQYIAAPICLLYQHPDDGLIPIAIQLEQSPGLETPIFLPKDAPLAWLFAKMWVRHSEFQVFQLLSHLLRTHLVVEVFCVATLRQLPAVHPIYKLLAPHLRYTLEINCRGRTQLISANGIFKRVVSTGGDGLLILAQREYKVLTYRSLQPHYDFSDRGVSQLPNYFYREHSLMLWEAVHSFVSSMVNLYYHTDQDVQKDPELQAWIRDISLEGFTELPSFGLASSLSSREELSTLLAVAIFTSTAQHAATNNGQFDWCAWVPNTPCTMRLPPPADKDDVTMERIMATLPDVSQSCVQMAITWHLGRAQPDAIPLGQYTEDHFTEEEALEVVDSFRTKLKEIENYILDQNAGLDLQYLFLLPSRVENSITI
The assay is described as above. Type of assay: biochemical. Particulars: 100 µM AA; 3 min; products after reduction 12-HETE (major) and 8-HETE.

`CCCCC/C=C\C/C=C\C/C=C\C/C=C\CCCC(=O)O` [AA, arachidonic acid]: the “lysate supernatant oxygenation assay, RP-HPLC / NP-HPLC of products” value in assay [1] and in assay [2] was “AA is oxygenated by the three bony fish ALOX-isoforms to a mixture of 12-HETE” each time.
